Data reported in patent publication US4987126A, “3'-deamino-4'-deoxy-4'-amino anthracyclines” (Farmitalia Carlo Erba S.r.l., priority 1988, dated 1991).

How the values were obtained:
[1] = tested on: P388 ascitic leukemia; experiment: Effect against P388 ascitic leukemia; format: in vivo, murine (CDF1 mice); conditions: for T/C % (median survival time of treated mice/median survival time of control × 100): P388, CDF1 mice, 10^6 cells i.v., single i.v. dose day 1 at optimal dose (mg/Kg): DNR 22.5, DXR 16.9, Ia 19.5, IIa 4; for Toxic death: P388-bearing CDF1 mice, autoptic findings, at optimal dose (mg/Kg): DNR 22.5, DXR 16.9, Ia 19.5, IIa 4
Description: (§1) The antileukemic activity of Ia and IIa, in comparison with DXR (doxorubicin) and DNR (daunorubicin), was tested against murine P388 and Gross Leukemias.
(§2) The compounds were tested by dissolving them, as hydrochlorides, in water.
^a Experiments were performed in CDF1 mice, inoculated i.v. with
(§3) ^b Single i.v. dose on day 1 after tumor inoculum.
(§4) ^c Median survival time of treated mice/median survival time of
^d Evaluated on the basis of autoptic findings.

[2] = tested on: murine Gross leukemia; experiment: Effect against murine Gross leukemia; format: in vivo, murine (C3H/He mice); conditions: for T/C % (median survival time of treated mice/median survival time of control × 100): Gross leukemia, C3H/He mice, 2 × 10^6 cells i.v., single i.v. dose day 1 at optimal dose (mg/Kg): DNR 15, DXR 13-16.9, Ib 65, Ia 12.5, IIa 4, Id 6.7, IIc 1; for Toxic death: Gross leukemia-bearing C3H/He mice, autoptic findings, at optimal dose (mg/Kg): DNR 15, DXR 13-16.9, Ib 65, Ia 12.5, IIa 4, Id 6.7, IIc 1; for potency on Gross leukemia (in words): among all compounds tested; for activity on increase of the survival time of mice, Gross leukemia (in words): mouse, in vivo
Description: as §1, §2
^a Experiments were performed in C3H/He mice, inoculated i.v. with 2
as §3, §4
^3 Evaluated on the basis of autoptic findings.

[3] = tested on: Human Colon ca. (LoVo/DXR); experiment: Effect against Human Colon ca. (LoVo/DXR); format: in vivo, human (tumor transplanted in Swissnude mice); conditions: i.v. once a week for three weeks, 1 week after last treatment; optimal dose (mg/Kg): DXR 6, Ia 7.5, IIa 4
Description: as §2
(§5) ^a experiment was performed in Swissnude mice, transplanted s.c. with
(§6) ^b treatment i.v. was carried out once a week for three weeks,
(§7) starting when the tumor was palpable
(§8) ^c percentage of tumor growth inhibition in respect to control was
(§9) calculated 1 week after the last treatment

[4] = tested on: Murine Mammary ca. (MTV/DXR); experiment: Effect against Murine Mammary ca. (MTV/DXR); format: in vivo; conditions: C3H/He mice, i.v. once a week for three weeks, optimal dose (mg/Kg): DXR 6, IIa 5; for tumor inhibition: 1 week after last treatment
Description: as §2
^a experiment was carried out in C3H/He mice, transplanted s.c. with
as §6, §7, §8, §9

[5] = tested on: Human Colon adenocarcinoma (LoVo); experiment: Effect against Human Colon adenocarcinoma (LoVo); format: in vivo, human (tumor transplanted in Swissnude mice); conditions: for tumor inhibition: i.v. once a week for three weeks, 1 week after last treatment, optimal dose (mg/Kg): DNR 8 tox, DXR 6, Ia 7.5, IIa 4-5; for activity on LoVo tumor (in words): in vivo
Description: as §2
^1 experiment was performed in Swissnude mice, transplanted s.c. with
as §6, §7, §8, §9

[6] = tested on: human lung adenocarcinoma (A549); experiment: Effect against human lung adenocarcinoma (A549); format: in vivo, human (tumor transplanted in Swissnude mice); conditions: i.v. once a week for three weeks, 1 week after last treatment; optimal dose (mg/Kg): DXR 6, Ia 9, IIa 5
Description: as §2, §5, §6, §7, §8, §9

[7] = tested on: Lewis Lung ca.; experiment: Effect against Lewis Lung ca.; format: in vivo, mouse (C57 B1/6 mice); conditions: for tumor inhibition / T/C (median survival time of treated mice/median survival time of control × 100): C57 B1/6 mice, 10^5 cells i.v., i.v. once a week for three weeks from day 1, optimal dose (mg/Kg): DXR 6-7.5, DNR 8, Ia 7.5, IIa 4; for tumor inhibition: 1 week after last treatment; for tumor growth inhibition, Lewis lung ca. (in words) / survival time of mice, Lewis lung ca. (in words): model sensitive to DXR; for survival time of mice, Lewis lung ca. (in words): versus DXR
Description: as §2
^a experiment was performed in C57 B1/6 mice, inoculated i.v. with
as §6
starting on day 1 after tumor transplant
as §8, §9
^d median survival time of treated mice/median survival time of […]

[8] = tested on: solid tumors; experiment: evaluation against different human and solid tumors (Tables 4-8, overall); format: in vivo, human and murine; conditions: IIa versus Ia
Description: as §2

CC(=O)[C@]1(O)Cc2c(O)c3c(c(O)c2[C@@H](O[C@H]2CC[C@@H](N)[C@H](C)O2)C1)C(=O)c1ccccc1C3=O [Compound IIa, 4-demethoxy-3'-deamino-4'-deoxy-4'-epi-aminodaunorubicin]
T/C % (median survival time of treated mice/median survival time of control × 100) [1]: 225% | Toxic death [1]: 0/10 | T/C % (median survival time of treated mice/median survival time of control × 100) [2]: 160% | Toxic death [2]: 0/10 | potency on Gross leukemia (in words) [2]: most potent | tumor inhibition [3]: 41% | tumor inhibition [4]: 44% | T/C [4]: 146% | tumor inhibition [5]: 54-56% | activity on LoVo tumor (in words) [5]: same activity than LoVo/DXR | tumor inhibition [6]: 49% | tumor inhibition [7]: 84% | T/C (median survival time of treated mice/median survival time of control × 100) [7]: 122% | tumor growth inhibition, Lewis lung ca. (in words) [7]: active, as DXR | survival time of mice, Lewis lung ca. (in words) [7]: less active | potency and activity against all solid tumors tested (in words) [8]: more potent and active than Ia

COc1cccc2c1C(=O)c1c(O)c3c(c(O)c1C2=O)C[C@@](O)(C(C)=O)C[C@@H]3O[C@H]1C[C@H](N)[C@H](O)[C@H](C)O1 [DNR, daunorubicin, reference compound]
T/C % (median survival time of treated mice/median survival time of control × 100) [1]: 222% | Toxic death [1]: 0/10 | T/C % (median survival time of treated mice/median survival time of control × 100) [2]: 200% | Toxic death [2]: 0/10 | activity on increase of the survival time of mice, Gross leukemia (in words) [2]: active | toxicity mark at the dose ([5]; 8 mg/Kg i.v. once a week for three weeks, Swissnude mice): tox | tumor inhibition [5]: 54% | tumor inhibition [7]: 47% | T/C (median survival time of treated mice/median survival time of control × 100) [7]: 135%

COc1cccc2c1C(=O)c1c(O)c3c(c(O)c1C2=O)C[C@@](O)(C(=O)CO)C[C@@H]3O[C@H]1C[C@H](N)[C@H](O)[C@H](C)O1 [DXR, doxorubicin, reference compound]
T/C % (median survival time of treated mice/median survival time of control × 100) [1]: 225% | Toxic death [1]: 0/10 | T/C % (median survival time of treated mice/median survival time of control × 100) [2]: 200-250% | Toxic death [2]: 0/10 | activity on increase of the survival time of mice, Gross leukemia (in words) [2]: active | tumor inhibition [3]: 30% | tumor inhibition [4]: 52% | T/C [4]: 84% | tumor inhibition [5]: 62% | tumor inhibition [6]: 44% | tumor inhibition [7]: 85-95% | T/C (median survival time of treated mice/median survival time of control × 100) [7]: 148-169% | tumor growth inhibition, Lewis lung ca. (in words) [7]: sensitive to DXR

C[C@@H]1O[C@@H](O[C@H]2C[C@](O)(C(=O)CO)Cc3c(O)c4c(c(O)c32)C(=O)c2ccccc2C4=O)CC[C@H]1N [IIc, 4-demethoxy-3'-deamino-4'-deoxy-4'-epi-aminodoxorubicin]
T/C % (median survival time of treated mice/median survival time of control × 100) [2]: 217% | Toxic death [2]: 0/10 | potency on Gross leukemia (in words) [2]: most potent

CC(=O)[C@]1(O)Cc2c(O)c3c(c(O)c2[C@@H](O[C@H]2CC[C@H](N)[C@H](C)O2)C1)C(=O)c1ccccc1C3=O [Ia, 4-demethoxy-3'-deamino-4'-deoxy-4'-aminodaunorubicin]
T/C % (median survival time of treated mice/median survival time of control × 100) [1]: 200% | Toxic death [1]: 0/10 | T/C % (median survival time of treated mice/median survival time of control × 100) [2]: 240% | Toxic death [2]: 0/10 | tumor inhibition [3]: 13% | tumor inhibition [5]: 11% | activity on LoVo tumor (in words) [5]: completly inactive | tumor inhibition [6]: 13% | tumor inhibition [7]: 7% | T/C (median survival time of treated mice/median survival time of control × 100) [7]: 104% | tumor growth inhibition, Lewis lung ca. (in words) [7]: inactive | survival time of mice, Lewis lung ca. (in words) [7]: inactive

COc1cccc2c1C(=O)c1c(O)c3c(c(O)c1C2=O)C[C@@](O)(C(C)=O)C[C@@H]3O[C@H]1CC[C@H](N)[C@H](C)O1 [Ib, 3'-deamino-4'-deoxy-4'-aminodaunorubicin]
T/C % (median survival time of treated mice/median survival time of control × 100) [2]: 240% | Toxic death [2]: 0/10

COc1cccc2c1C(=O)c1c(O)c3c(c(O)c1C2=O)C[C@@](O)(C(=O)CO)C[C@@H]3O[C@H]1CC[C@H](N)[C@H](C)O1 [Id, 3'-deamino-4'-deoxy-4'-aminodoxorubicin]
T/C % (median survival time of treated mice/median survival time of control × 100) [2]: 200% | Toxic death [2]: 0/10
